The results in this text go back to ChEMBL document CHEMBL1201862, “PubChem BioAssay data set” (2004).

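These data come from cells grown in 96-well plates and exposed to compound for 48 hours at five concentrations. GI50 is the concentration that inhibits growth by half.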 Active and inactive are the calls of the source. Cut-off read from the data, not from the text of the source: active = GI50 up to about 1.1 µM and inactive = higher.

Among the test systems are KM12; RPMI-8226; CCRF-CEM; A549; Malme-3M; MOLT-4; HCC 2998; SK-MEL-5; U-251; SNB-19; NCI-H226; 786-0; CAKI-1; HOP-92.
Holding throughout (assay): NCI-60 cell line screen, 48 h

Regarding `Clc1ccc(C[P+]2(c3ccccc3)CCCCC2)cc1.[O-][Cl+3]([O-])([O-])[O-]`, the GI50 is 77.4 µM (inactive) with KM12; 32.2 µM (inactive) with RPMI-8226; 75.9 µM (inactive) with CCRF-CEM; > 100 µM (inactive) in the assay with A549; 58.5 µM (inactive) with Malme-3M; 86.5 µM (inactive) with MOLT-4. For the same compound, the GI50 is 43.6 µM (inactive) in the assay with HCC 2998; 20.3 µM (inactive) in the assay on SK-MEL-5; 45.5 µM (inactive) with U-251; 66.8 µM (inactive) in the assay on SNB-19; > 100 µM (inactive) in the assay with NCI-H226; > 100 µM (inactive) in the assay on 786-0.

On to `O=C1N(c2ccccc2)C2(O)C(=O)c3ccccc3C2(O)N1c1ccccc1` (stereo unspecified), for which the GI50 in the assay on KM12, with RPMI-8226, in the assay with CCRF-CEM, in the assay with A549, with Malme-3M and in the assay with MOLT-4 was > 100 µM (inactive) in each case. In addition, the GI50 in the assay with HCC 2998, in the assay on SK-MEL-5, in the assay with U-251, in the assay on SNB-19, in the assay with NCI-H226 and in the assay with 786-0 was > 100 µM (inactive) each time. The GI50 in the assay with CAKI-1 is > 100 µM (inactive).

With `C/C(=N\NC(=S)N(C)C)c1ncc[nH]1`, the GI50 in the assay with KM12 is 5.21 µM (inactive); in the assay on HOP-92, 2.47 µM (inactive); with RPMI-8226, 4.2 µM (inactive); in the assay on CCRF-CEM it was 2.82 µM (inactive); with A549, 3.38 µM (inactive); in the assay with Malme-3M it was 3.36 µM (inactive). Further, the GI50 with MOLT-4 is 3.06 µM (inactive); with HCC 2998, 3.52 µM (inactive); with SK-MEL-5, 4.46 µM (inactive); in the assay on U-251, 2.23 µM (inactive); with SNB-19 it was 4.42 µM (inactive); in the assay on 786-0, 2.18 µM (inactive).

`CC1=C(C(=O)Nc2cc(=O)n(C)c(=O)n2C)C(c2ccc([N+](=O)[O-])cc2)C(C(=O)Nc2cc(=O)n(C)c(=O)n2C)=C(C)N1`: the GI50 in the assay with KM12 was > 100 µM (inactive); in the assay on HOP-92, 26.7 µM (inactive); with RPMI-8226, 59.6 µM (inactive); with CCRF-CEM it was > 100 µM (inactive); with A549, > 100 µM (inactive); in the assay on Malme-3M, > 100 µM (inactive). The GI50 with MOLT-4 is 52.4 µM (inactive); with HCC 2998 it was 94.8 µM (inactive); in the assay with U-251 it was > 100 µM (inactive); in the assay with SNB-19 it was > 100 µM (inactive); in the assay on NCI-H226, 49.3 µM (inactive); in the assay with 786-0, 84.9 µM (inactive).

Consider `CCC1CC2C(=O)N(c3ccccc3)C(=O)C2c2[nH]c3ccccc3c21` (stereo unspecified), for which the GI50 is 31.2 µM (inactive) in the assay on KM12; 22.5 µM (inactive) in the assay with RPMI-8226; 26.9 µM (inactive) in the assay with CCRF-CEM; 24.6 µM (inactive) with A549; 14.1 µM (inactive) in the assay on Malme-3M; 20.2 µM (inactive) with MOLT-4. For the same compound, the GI50 with HCC 2998 was 29.3 µM (inactive); with SK-MEL-5 it was 30.8 µM (inactive); in the assay on U-251, 28.5 µM (inactive); in the assay with SNB-19, 22.9 µM (inactive); with NCI-H226, 11.4 µM (inactive); in the assay on 786-0, 18.9 µM (inactive).

For the compound `CCc1ccc(Cc2ccc(CC)c(NC(=O)C(=O)C3NC(=S)NC3=O)c2CC)c(CC)c1NC(=O)C(=O)C1NC(=S)NC1=O` (stereo unspecified), the GI50 in the assay on KM12 is > 100 µM (inactive); with HOP-92, 38 µM (inactive); in the assay with RPMI-8226, > 100 µM (inactive); in the assay with CCRF-CEM it was > 100 µM (inactive); with A549 it was > 100 µM (inactive); in the assay on Malme-3M, > 100 µM (inactive). The GI50 with MOLT-4, with HCC 2998, in the assay with SK-MEL-5, with U-251, with SNB-19 and in the assay on 786-0 was > 100 µM (inactive) in each case. Also, the GI50 in the assay with CAKI-1 was > 100 µM (inactive).

`CCN(CC)C(=O)c1c(N2CCOCC2)cc(N(CC)CC)oc1=O`: the GI50 with KM12, in the assay with HOP-92, in the assay with RPMI-8226, in the assay with CCRF-CEM, in the assay with A549 and with Malme-3M was > 100 µM (inactive) throughout. For the same compound, the GI50 in the assay on MOLT-4, in the assay with HCC 2998, in the assay with U-251, in the assay on SNB-19, with NCI-H226 and with 786-0 was > 100 µM (inactive) each time.

With `CC(C)C(Sc1nc(-c2ccccc2)c(-c2ccccc2)[nH]1)C(=O)NNC(=S)Nc1ccccc1` (stereo unspecified), the GI50 in the assay with KM12 is 14.7 µM (inactive); in the assay with HOP-92 it was 15.2 µM (inactive); with RPMI-8226, 10.9 µM (inactive); in the assay with CCRF-CEM, 11.6 µM (inactive); in the assay on A549, 25.5 µM (inactive); in the assay on Malme-3M it was 16.7 µM (inactive). For the same compound, the GI50 is 12.1 µM (inactive) in the assay on MOLT-4; 0.0421 µM (active) in the assay on HCC 2998; 12.8 µM (inactive) in the assay with SK-MEL-5; 15 µM (inactive) in the assay with U-251; 41.9 µM (inactive) with SNB-19; 16.7 µM (inactive) with NCI-H226. Also, the GI50 with 786-0 is 18.2 µM (inactive).

Regarding `CCCc1c[nH]c(-c2ccc(-c3cc(CCC)c(C=O)[nH]3)s2)c1`, the GI50 with KM12 was 14.7 µM (inactive); in the assay with CCRF-CEM, 21.8 µM (inactive); in the assay on A549 it was 5.83 µM (inactive); in the assay on Malme-3M, 15.2 µM (inactive); in the assay on MOLT-4, 26.4 µM (inactive); in the assay with SK-MEL-5 it was 16.9 µM (inactive). For the same compound, the GI50 is 15.6 µM (inactive) in the assay with U-251, 22 µM (inactive) in the assay with SNB-19, 18.7 µM (inactive) in the assay with NCI-H226 and 14.6 µM (inactive) in the assay on 786-0.

In the case of `CC(=O)CC(=O)Nc1ccccc1C(F)(F)F`, the GI50 in the assay on HOP-92, in the assay on RPMI-8226, with CCRF-CEM, in the assay with A549, in the assay on Malme-3M and with MOLT-4 was > 100 µM (inactive) each time. In addition, the GI50 with HCC 2998, in the assay on SK-MEL-5, in the assay with U-251, in the assay with SNB-19, in the assay with NCI-H226 and in the assay with 786-0 was > 100 µM (inactive) in each case. In addition, the GI50 with CAKI-1 was > 100 µM (inactive).

As to `O=C1c2ccccc2S[C@@H](O)[C@@H]2CCCN12`, the GI50 in the assay on KM12, with HOP-92, in the assay with RPMI-8226, with CCRF-CEM, in the assay with A549 and in the assay with Malme-3M was > 100 µM (inactive) throughout. Moreover, the GI50 in the assay on MOLT-4, with HCC 2998, in the assay on SK-MEL-5, with U-251, with SNB-19 and with 786-0 was > 100 µM (inactive) each time.

Consider `Cc1cc(NS(=O)(=O)c2ccc(NC(=O)c3cccc4c(Nc5ccc(S(=O)(=O)N=C(N)N)cc5)c5ccccc5nc34)cc2)no1`, for which the GI50 with KM12, in the assay on HOP-92, in the assay with RPMI-8226, with A549, in the assay with Malme-3M and in the assay on MOLT-4 was > 100 µM (inactive) each time. Moreover, the GI50 in the assay on HCC 2998, with SK-MEL-5, in the assay on U-251, with SNB-19, in the assay with NCI-H226 and in the assay with 786-0 was > 100 µM (inactive) throughout. Also, in the assay on CAKI-1, the GI50 was > 100 µM (inactive).

As to `COC(=O)NN=C1C(C)(C)C(=NNC(=O)OC)C1(C)C`, the GI50 in the assay with KM12 is > 100 µM (inactive); in the assay with HOP-92, > 100 µM (inactive); in the assay with CCRF-CEM, > 44.9 µM (inactive); in the assay on A549, > 100 µM (inactive); with Malme-3M, > 100 µM (inactive); with MOLT-4, > 100 µM (inactive). Besides, the GI50 with HCC 2998 was > 100 µM (inactive); with SK-MEL-5, > 100 µM (inactive); in the assay on U-251, > 62.7 µM (inactive); in the assay on SNB-19 it was > 100 µM (inactive); in the assay on NCI-H226, > 100 µM (inactive); in the assay with 786-0, > 100 µM (inactive). For the same compound, the GI50 in the assay with CAKI-1 was > 85.1 µM (inactive).

As for `Cc1cc(C)cc(-n2c3nc(=O)n(C)c(=O)c-3nc3ccccc32)c1`, the GI50 in the assay on KM12 was 27.1 µM (inactive); in the assay on RPMI-8226 it was 29.7 µM (inactive); in the assay on CCRF-CEM, 23.2 µM (inactive); with A549, 26.7 µM (inactive); in the assay with Malme-3M, 16 µM (inactive); in the assay with MOLT-4, 23 µM (inactive). The GI50 with HCC 2998 was 18.1 µM (inactive); in the assay on SK-MEL-5, 15.8 µM (inactive); with U-251, 21.8 µM (inactive); in the assay on SNB-19, 22.1 µM (inactive); in the assay with NCI-H226, 34.7 µM (inactive); in the assay with 786-0, 81.7 µM (inactive). Moreover, the GI50 with CAKI-1 was 37.8 µM (inactive).

For `CCn1cc(C(=O)O)c(=O)c2cc(F)c(N3CCNCC3)nc21` [ENOXACIN], the GI50 with KM12 is 79.3 µM (inactive); in the assay on HOP-92, 32.8 µM (inactive); with RPMI-8226, > 100 µM (inactive); with CCRF-CEM, > 100 µM (inactive); with A549 it was > 100 µM (inactive); with Malme-3M it was 74.1 µM (inactive). Also, the GI50 was 67.1 µM (inactive) with MOLT-4; > 100 µM (inactive) in the assay on HCC 2998; 87.5 µM (inactive) with SK-MEL-5; 66.7 µM (inactive) with U-251; > 100 µM (inactive) in the assay on SNB-19; > 100 µM (inactive) in the assay on NCI-H226. Further, the GI50 in the assay on 786-0 is > 100 µM (inactive).
